From patent US20060165798A1, “Oral osmotic dosage form having a high flux membrane” (priority 2005, published 2006)

Type: physicochemical
Method: The measured values for the tested systems were Δπ=245 atmospheres, A=2.41 cm^2, S=333 mg/ ml. Thickness of the membrane was measured directly with a table micrometer. Osmotic pressure was measured on saturated solutions of potassium chloride at 37° C. using a Knauer model VPO vapor pressure osmometer and standard reference solutions of known osmotic pressure for comparison. Surface area of the tablet core was determined by first measuring the dimensions of the tablet core and then calculating surface area using standard mensuration formulae. Drug solubility was determined by measuring the concentration of a saturated solution of potassium chloride by conductivity analysis using a conductivity meter and reference solutions of potassium chloride of known aqueous concentrations. Average release rate was calculated by measuring the mass of potassium chloride released per 2-hour intervals of time according to the experimental procedures described in Example 3. Then, the total mass of potassium chloride released was summed for all whole 2-hour intervals between 20% and 70% (100 mg to 350 mg of potassium chloride) of the initial dose present within the dosage form (500 mg). Finally, the total mass of drug released during these whole intervals was divided by the sum of these time intervals to arrive at the average release rate. […]

## [Cl-].[K+] [potassium chloride]
Saturated aqueous solution
  drug solubility S: 333 mg/mL
Saturated solution at 37° C.
  osmotic pressure Δπ: 245 atmospheres
